Assay results as given in paper PMC5104769, “Concentration-Dependent Dual Mode of Zn Action at Serotonin 5-HT1A Receptors: In Vitro and In Vivo Studies” (Molecular neurobiology, 2015).

Assays:
[1] = target: T1, human 5-HT1AR stably expressed in HEK293 cells (Homo sapiens, UniProt P08908); experiment: Association and dissociation kinetic assays of [3H]-8-OH-DPAT; type: binding
T1 construct: The full-length human 5HTR1A complementary DNA (cDNA); membranes prepared from the cells
T1 sequence (P08908 1-422): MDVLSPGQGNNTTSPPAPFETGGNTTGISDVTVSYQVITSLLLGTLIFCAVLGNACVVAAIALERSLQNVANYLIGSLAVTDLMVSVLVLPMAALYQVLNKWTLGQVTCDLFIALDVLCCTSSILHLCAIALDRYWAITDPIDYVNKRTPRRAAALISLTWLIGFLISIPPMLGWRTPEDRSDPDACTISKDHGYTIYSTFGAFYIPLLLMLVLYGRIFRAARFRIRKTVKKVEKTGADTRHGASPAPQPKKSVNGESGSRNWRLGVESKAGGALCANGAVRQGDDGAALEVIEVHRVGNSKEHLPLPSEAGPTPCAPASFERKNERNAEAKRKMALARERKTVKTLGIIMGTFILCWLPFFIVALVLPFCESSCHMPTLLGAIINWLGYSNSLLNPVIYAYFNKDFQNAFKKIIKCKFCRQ
Protocol: Non-specific binding was defined by the addition of 10 μM serotonin. The amount of radioligand bound to the receptor was measured at different time intervals during a total incubation of 60 min in the absence or presence of 10 and 500 μM ZnCl2. For the dissociation assay, after incubating the membranes with radioligand for 60 min to achieve equilibrium, serotonin (10 μM), either alone or together with 10 or 500 μM of ZnCl2, was added, and the specifically bound radioligand was measured after incubations of different durations (from 0 to 60 min), which were terminated by rapid filtration.

[2] = system: Sprague Dawley rats; experiment: 5-HT behavioural syndrome (flat body posture, forepaw treading) in rats; type: in vivo, rat; details: for behavioural score FBP (A) VEH / behavioural score FT (A) VEH: max score 10
Protocol: (§1) The experiments were performed on male Albino Swiss mice (23–25 g) and Sprague Dawley rats (200–250 g) from Charles River, Germany as well as TPH2-Cre-ER^T2 x flx-5-HT1A-flx-YFP mice from Jackson Labs, Bangor ME and the Hen lab, respectively. The animals were kept under standard laboratory conditions with respect to lighting (light phase 7:00–19:00) and temperature (19–21 °C). Food and water were freely available. Each experimental group consisted of eight to ten animals. All of the animals were experimentally naive and were used only once in each test. The experiments were performed during the light period (9:00–14:00 h). All of the procedures were conducted according to the guidelines of the National Institutes of Health Animal Care and Use Committee and were approved by the Ethics Committees of the Institute of Pharmacology, Polish Academy of Sciences in Krakow and the Animal Care Committee, University of Ottawa.
Zn (all doses refer to mg Zn/kg) was given as either Zn hydroaspartate (Farmapol, Poland) or Zn chloride (Sigma-Aldrich) and was dissolved in 0.9 % NaCl and administered intraperitoneally (i.p.). 8-OH-DPAT and WAY-100635 were dissolved in aqua pro-injection and were administered subcutaneously (s.c.). Controls were treated with the appropriate diluent, which was indicated as VEH on the graphs and in the tables.
The experiments were conducted according to previously published procedure, with a modification to the ranked intensity scale. Briefly, the rats were individually placed in cages (30×25×25 cm) 5 min before tested compounds were injected. Forepaw treading (FT) and flat body posture (FBP) were scored using a ranked intensity scale, where 0=absent, 1=equivocal and 2=present. The Zn (2, 5, 7.5 and 11.5 mg Zn/kg, given as a Zn hydroaspartate)-induced behavioural syndrome was scored for each animal 3, 6, 9, 12 and 15 min after the Zn treatment. Each observation session lasted for 45 s. The maximum score, which was summed over 5 observation periods, was 10 for each symptom/rat. The effect of Zn on the behavioural syndrome induced by 8-OH-DPAT (5 mg/kg) was scored using the same scale. Zn was administered 60 min before 8-OH-DPAT, and the animals were scored 3, 6, 9, 12 and 15 min after the 8-OH-DPAT treatment.

[3] = parameters: method as in PMID 20617034; details: cited from earlier work
[4] = Body temperature in rats; type: in vivo, rat; details: Zn: 30 min at 7.5 and 11.5 mg/kg, 60 min at 5, 7.5 and 11.5 mg/kg
Protocol: as §1, with “Ottawa. […]” for “Ottawa.”
The effects of Zn (2, 5, 7.5 and 11.5 mg Zn/kg for rats and 2 and 5 mg/kg for mice, given as a Zn hydroaspartate), 8-OH-DPAT (5 mg/kg) and WAY-100635 (0.1mg/kg) on rectal body temperature were recorded 30 and 60 min after their acute administration. The results were expressed as a change in body temperature with respect to the basal body temperature, which was measured at the beginning of the experiments.

[5] = Zn 2 mg/kg 60 min before 8-OH-DPAT 5 mg/kg
[6] = Zn 5 mg/kg 60 min before 8-OH-DPAT 5 mg/kg
[7] = Zn 7.5 mg/kg 60 min before 8-OH-DPAT 5 mg/kg
[8] = Zn 11.5 mg/kg 60 min before 8-OH-DPAT 5 mg/kg

[Zn+2] [Zn, Zinc]
effect on association rate of [3H]-8-OH-DPAT ([1]; 10 μM of Zn ions): small increase in the association rate
effect on association rate of [3H]-8-OH-DPAT ([1]; 500 μM Zn): no effect on the kon values
effect on dissociation rate of [3H]-8-OH-DPAT ([1]; high Zn concentration (500 μM)): both phases were significantly reduced
effect on dissociation rate of [3H]-8-OH-DPAT ([1]; low Zn concentration (10 μM)): disappearance of the fast radioligand dissociation rate
effect on 8-OH-DPAT-induced FBP and FT (in words) ([2]; FBP at 11.5 mg/kg, FT at 7.5 and 11.5 mg/kg Zn): blocked the 8-OH-DPAT-induced FBP and FT
behavioural score FBP (B) 8-OH-DPAT [2, 5]: 7.7±0.3
behavioural score FT (B) 8-OH-DPAT [2, 5]: 7.1±0.6
behavioural score FBP (A) VEH ([2]; Zn 2 mg/kg alone): 0.2±0.2
behavioural score FT (A) VEH ([2]; Zn 2 mg/kg alone): 0.3±0.2
behavioural score FBP (B) 8-OH-DPAT [2, 6]: 7.5±0.8
behavioural score FT (B) 8-OH-DPAT [2, 6]: 7.5±0.5
behavioural score FBP (A) VEH ([2]; Zn 5 mg/kg alone): 0.3±0.3
behavioural score FT (A) VEH ([2]; Zn 5 mg/kg alone): 0.2±0.2
behavioural score FBP (B) 8-OH-DPAT [2, 7]: 7.0±0.3
behavioural score FT (B) 8-OH-DPAT [2, 7]: 5.0±0.6
behavioural score FBP (A) VEH ([2]; Zn 7.5 mg/kg alone): 0.5±0.5
behavioural score FT (A) VEH ([2]; Zn 7.5 mg/kg alone): 0.2±0.2
behavioural score FBP (B) 8-OH-DPAT [2, 8]: 3.4±0.6
behavioural score FT (B) 8-OH-DPAT [2, 8]: 0.4±0.2
behavioural score FBP (A) VEH ([2]; Zn 11.5 mg/kg alone): 0.5±0.2
behavioural score FT (A) VEH ([2]; Zn 11.5 mg/kg alone): 0.2±0.2
induction of FBP or FT (in words) ([2]; Zn 2, 5, 7.5 and 11.5 mg/kg alone): did not induce FBP or FT
extracellular Zn level reported as neurotoxic [3]: over 300 μM
change in body temperature [4]: significantly decreased the body temperature
